The text below walks through data of ChEMBL document CHEMBL3044784, “Molecular Basis of Resistance to s-Triazine Herbicides in Poa annua L. and Its Photosynthetic Properties under Different Light Conditions” (J Pestic Sci, 2001).

Active and inactive are the calls of the source. No cut-off for these calls is given here. Some results are limits rather than exact numbers.

In experiment [1] the test system is Poa annua. Put plainly: Pre-emergence herbicidal activity against s-triazine-resistant Poa annua at 0.05 kg/ha after 14 days by pot test. The class given is functional, organism-based.
Experiment [2] has as its system Poa annua. Description: Herbicidal activity against hydroponic culture of s-triazine-susceptible Poa annua at 1000 ppm after 14 days. The class given is functional, organism-based.
The subject of experiment [3] is Poa annua. Put plainly: Pre-emergence herbicidal activity against s-triazine-susceptible Poa annua at 1 kg/ha after 14 days by pot test. The class given is functional, organism-based.
Experiment [4] concerns Poa annua. Put plainly: Herbicidal activity against hydroponic culture of s-triazine-susceptible Poa annua at 100 ppm after 14 days. The class given is functional, organism-based.
The subject of experiment [5] is Poa annua. Put plainly: Pre-emergence herbicidal activity against s-triazine-susceptible Poa annua at 0.5 kg/ha after 14 days by pot test. In kind it is functional, organism-based.
Experiment [6] concerns Poa annua. Put plainly: Pre-emergence herbicidal activity against s-triazine-resistant Poa annua at 0.10 kg/ha after 14 days by pot test. The class given is functional, organism-based.
Experiment [7] has as its system Poa annua. Description: Pre-emergence herbicidal activity against s-triazine-resistant Poa annua at 0.5 kg/ha after 14 days by pot test. The class given is functional, organism-based.
Experiment [8] relates to Poa annua. Description: Herbicidal activity against hydroponic culture of s-triazine-resistant Poa annua at 1 ppm after 14 days. The class given is functional, organism-based.
Experiment [9] relates to Poa annua. Description: Pre-emergence herbicidal activity against s-triazine-resistant Poa annua at 1 kg/ha after 14 days by pot test. The class given is functional, organism-based.
The test system of experiment [10] is Poa annua. Put plainly: Pre-emergence herbicidal activity against s-triazine-resistant Poa annua at 0.25 kg/ha after 14 days by pot test. The class given is functional, organism-based.
Experiment [11] relates to Poa annua. Description: Herbicidal activity against hydroponic culture of s-triazine-resistant Poa annua at 0.1 ppm after 14 days. The class given is functional, organism-based.
The test system of experiment [12] is Poa annua. Description: Herbicidal activity against hydroponic culture of s-triazine-resistant Poa annua at 100 ppm after 14 days. The class given is functional, organism-based.
Experiment [13] relates to Poa annua. Put plainly: Herbicidal activity against hydroponic culture of s-triazine-resistant Poa annua at 10 ppm after 14 days. In kind it is functional, organism-based.
Experiment [14] relates to Poa annua. Description: Herbicidal activity against hydroponic culture of s-triazine-resistant Poa annua at 1000 ppm after 14 days. In kind it is functional, organism-based.
Experiment [15] has as its system Poa annua. Description: Pre-emergence herbicidal activity against s-triazine-susceptible Poa annua at 0.05 kg/ha after 14 days by pot test. In kind it is functional, organism-based.
Experiment [16] concerns the target T1, Photosystem Q(B) protein (Poa annua, UniProt Q9XQA6). Put plainly: Inhibition of photosystem II in s-triazine-resistant Poa annua leaf thylakoid membrane assessed as reduction of photosynthetic electron transport. As to conditions: read-out: I50.
Experiment [17] has as its target Photosystem Q(B) protein (Poa annua) (UniProt Q9XQA6). Description: Resistant ratio, ratio of I50 for photosystem II in s-triazine-resistant Poa annua leaf thylakoid membrane to I50 for photosystem II in s-triazine-susceptible Poa annua leaf thylakoid membrane.
The target in experiment [18] is T1, Photosystem Q(B) protein. Put plainly: Inhibition ofphotosystem II in s-triazine-susceptible Poa annua leaf thylakoid membrane assessed as reduction of photosynthetic electron transport. As to conditions: read-out: I50.
For experiment [19], the system named is Poa annua. Put plainly: Herbicidal activity against hydroponic culture of s-triazine-susceptible Poa annua at 0.1 ppm after 14 days. The class given is functional, organism-based.
Experiment [20] deals with Poa annua. Description: Herbicidal activity against hydroponic culture of s-triazine-susceptible Poa annua at 10 ppm after 14 days. In kind it is functional, organism-based.
Experiment [21] concerns Poa annua. Put plainly: Herbicidal activity against hydroponic culture of s-triazine-susceptible Poa annua at 1 ppm after 14 days. In kind it is functional, organism-based.

Take `CCNc1nc(Cl)nc(NC(C)(C)C#N)n1`: the outcome in experiment [1], in [2], in experiment [4], in [6], in [7] and in [8] was inactive. The outcome in [9], in experiment [10] and in experiment [11] was inactive. Also, the result in experiment [3] and in experiment [5] was Active.
On to `CCNc1nc(Cl)nc(NCC)n1`, for which the outcome in experiment [1], in experiment [12], in experiment [5], in [6], in [13] and in experiment [7] was inactive. The outcome in [14], in experiment [8], in experiment [9], in experiment [10] and in [11] was inactive. Further, the result in experiment [2] and in experiment [3] was Active.
Regarding `CCNc1nc(NCC)nc(SC)n1`, the result in experiment [1], in [15], in [6], in experiment [7], in [8] and in [9] was inactive. The outcome in experiment [10] and in [11] was inactive. Also, the outcome in experiment [2] and in experiment [4] was Active.
Consider `CSc1nc(NC(C)C)nc(NC(C)C)n1`, for which the result in experiment [1], in experiment [12], in experiment [6], in experiment [13], in experiment [7] and in experiment [14] was inactive. In addition, the outcome in [8], in experiment [9], in experiment [10] and in [11] was inactive. In addition, the result in experiment [2] was Active.
Regarding `CCNc1nc(Cl)nc(NC(C)C)n1` [ATRAZINE], the result in experiment [1], in [12], in [6], in experiment [13], in [7] and in [8] was inactive. The result in experiment [9], in experiment [10] and in experiment [11] was inactive. Further, the IC50 in [16] was over 100000 nM; in experiment [18], 160 nM. Also, the result in experiment [2], in [3], in experiment [4] and in experiment [5] was Active. Moreover, in experiment [17], the Ratio was over 625.
As to `CN(C)C(=O)Nc1ccc(Cl)c(Cl)c1` [DCMU], the figures for the IC50 in experiment [16] and in experiment [18] were 400 nM and 130 nM, respectively. Moreover, the outcome in [2], in experiment [3], in experiment [12], in experiment [4], in experiment [5] and in experiment [13] was Active. The outcome in experiment [14], in experiment [9] and in experiment [20] was Active. Further, the Ratio in [17] is 3.1. The outcome in experiment [19] and in [11] was inactive.
In the case of `CCC(C)c1cc([N+](=O)[O-])cc([N+](=O)[O-])c1O` (centres undefined) [DINOSEB], the results for the IC50 in [16] and in experiment [18] were 400 nM and 4000 nM, respectively. Further, the outcome in experiment [2], in experiment [12], in experiment [4], in [13], in [14] and in experiment [9] was Active. The Ratio in experiment [17] is 0.1. In addition, the outcome in experiment [19], in [21] and in experiment [11] was inactive.
As for `O=c1[nH]c2c(c(=O)n1C1CCCCC1)CCC2` [LENACIL], the result in [1], in [12], in experiment [13], in [14], in experiment [8] and in experiment [11] was inactive. Further, the IC50 in experiment [16] came out at 20000 nM; in [18], 1000 nM. The result in experiment [2], in [3] and in [5] was Active. Besides, the Ratio in [17] came to 20.
